The pIC50 is −log10 of the IC50, conventionally taken in molar units. Lower therefore signals a large IC50.

For 35 molecules, IC50 results are on record in US11548888B2, “KRas G12C inhibitors” (Mirati Therapeutics, Inc., priority 2019, dated 2023).

Each structure is given as a SMILES string. pIC50: −log10 of the molar value.

T1 sequence (P01116 1-188 isoform P01116-2 G12C): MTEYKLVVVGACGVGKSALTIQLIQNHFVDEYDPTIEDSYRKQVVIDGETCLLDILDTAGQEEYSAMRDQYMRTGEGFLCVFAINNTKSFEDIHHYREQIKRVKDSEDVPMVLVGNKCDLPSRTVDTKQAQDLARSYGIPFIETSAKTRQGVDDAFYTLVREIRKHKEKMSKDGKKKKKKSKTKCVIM

The experiment concerns the target T1, KRas G12C (Homo sapiens, UniProt P01116, G12C).
T1 construct: NCI-H358 cells (ATCC CRL-5807) express KRas G12C
The experiment is described as follows: Inhibition of KRas G12C-dependent cell growth: Phospho-ERK in NCI-H358 cells. It counts as cell-based. The note with it: NCI-H358 cells expressing KRas G12C; Phospho-ERK (Thr202/Tyr204) normalized to GAPDH; 3 hours compound; 4 parameter fit. On the procedure: The cellular inhibition of KRAs G12C by exemplary compounds of the present invention was determined by measuring the amount of a downstream marker of KRas activity, phosphorylated ERK (“Phospho-ERK”).
NCI-H358 cells (ATCC CRL-5807) express KRas G12C and were grown in RPMI medium supplemented with 10% fetal bovine serum, penicillin/streptomycin and 10 mM HEPES. Cells were plated in poly-D-Lysine coated 96-well plates at a concentration of 50,000 cells/well and allowed to attach for 8-12 hours. Diluted compounds were then added at a final concentration of 0.5% DMSO. After 3 hours, the medium was removed, 150 μL of 4% formaldehyde was added and the plates were incubated for 20 minutes. The plates were washed with PBS, and permeabilized using 150 μL of ice cold 100% methanol for 10 minutes. Non-specific antibody binding to the plates was blocked using 100 μL Licor Blocking Buffer (Li-Cor Biotechnology, Lincoln Nebr.) for 1 hour at room temperature. Positive control samples and samples lacking cells were parallel processed with test samples as standards.
The amount Phospho-ERK was determined using an antibody specific for the phosphorylated form of ERK and compared to the amount of GAPDH. Primary antibodies used for detection were added as follows: Phospho-ERK (Cell Signaling cs9101) diluted 1:500 and GAPDH (Millipore MAB374) diluted 1:5000 in Licor block+0.05% Tween 20. The plates were incubated for 2 hours at room temperature. The plates were washed with PBS+0.05% Tween 20.
Secondary antibodies used to visualize primary antibodies were added as follows: Anti-rabbit-680 diluted 1:1000 and Anti-mouse-800 diluted 1:1000 in Licor Block+0.05% Tween 20 and incubated for 1 hour at room temperature. The plates were washed with PBS+0.05% Tween 20. A 100 μL aliquot of PBS was added to each well and the plates were read on a LICOR AERIUS plate reader.
The pERK(Thr202/Tyr204) signal was normalized with the GAPDH signal and percent of DMSO control values were calculated. IC50 values were generated using a 4 parameter fit of the dose response curve.
`C=CC(=O)N1CCN(c2ncnc3c(F)c(-c4c[n+]([O-])cc5ccccc45)ncc23)CC1` [Example 301, 4-(4-(4-acryloylpiperazin-1-yl)-8-fluoropyrido[4,3-d]pyrimidin-7-yl)isoquinoline 2-oxide]: the pIC50 was 5.00.

In turn, `C=CC(=O)N1CCN(c2ncnc3c(F)c(-c4cc(O)cc5cccc(Cl)c45)ncc23)CC1` [Example 178] gave a pIC50 of 7.20. The result for `C=CC(=O)N1CCN(c2ncnc3c(F)c(-c4ccccc4F)ncc23)[C@@H](C)C1` [Example 186] reads 5.00; that for `C=C(F)C(=O)N1CCN(c2nc(OCC3COC3)nc3c(F)c(-c4cccc5ccc(F)c(Cl)c45)ncc23)C[C@@H]1CC#N` [Example 151], 6.59; that for `C=CC(=O)N1CCN(c2nc(OC[C@@H]3CCCN3C)nc3c(F)c(-c4ccccc4F)ncc23)CC1` [Example 184], 5.00. The result for `C=C(F)C(=O)N1CCN(c2nc(OC[C@@H]3C[C@@H](F)CN3C)nc3c(F)c(-c4cncc5cccc(Cl)c45)ncc23)C[C@@H]1CC#N` [Example 52, 2-[(2S)-4-[7-(5-chloro-4-isoquinolyl)-8-fluoro-2-[[(2S,4R)-4-fluoro-1-methyl-pyrrolidin-2-yl]methoxy]pyrido[4,3-d]pyrimidin-4-yl]-1-(2-fluoroprop-2-enoyl)piperazin-2-yl]acetonitrile] reads 7.64; that for `C=C(F)C(=O)N1CCN(c2nc(OCCCN3C[C@@H]4C[C@H]3CO4)nc3c(F)c(-c4cccc5cccc(C)c45)ncc23)C[C@@H]1CC#N` [Example 28, 2-[(2S)-4-[8-fluoro-7-(8-methyl-1-naphthyl)-2-[3-[(1S,4S)-2-oxa-5-azabicyclo[2.2.1]heptan-5-yl]propoxy]pyrido[4,3-d]pyrimidin-4-yl]-1-(2-fluoroprop-2-enoyl)piperazin-2-yl]acetonitrile], 6.59; that for `C#Cc1cccc2cccc(-c3ncc4c(N5CC[C@@H]6[C@H]5CN6C(=O)C=C)ncnc4c3F)c12` [Example 245, 1-((1R,5R)-2-(7-(8-ethynylnaphthalen-1-yl)-8-fluoropyrido[4,3-d]pyrimidin-4-yl)-2,6-diazabicyclo[3.2.0]heptan-6-yl)prop-2-en-1-one], 5.39. As to `C=CC(=O)N1CC[C@@H]2[C@H]1CN2c1nc(OC[C@@H]2[C@H]3C[C@H]3CN2C)nc2c(F)c(-c3cccc4ccc(F)c(Cl)c34)ncc12` [Example 253], the pIC50 is 7.46. Against the preceding molecule, the pIC50 is 2.07 log units higher. Consider `C=CC(=O)N1CCN(c2ncnc3c(F)c(-c4cc(F)cc5ccccc45)ncc23)C[C@@H]1CC#N` [Example 249], for which the pIC50 was 5.90. This pIC50 lies 1.56 log units lower than the previous one. `C=CC(=O)N1CC[C@@H]2[C@H]1CN2c1nc(OC[C@@H]2[C@@H]3C[C@@H]3CN2C)nc2c(F)c(-c3cccc4ccc(F)c(Cl)c34)ncc12` [Example 252] had a pIC50 of 7.54.

`COC/C=C/C(=O)N1CCN(c2nc(OC[C@@H]3CCCN3C)nc3c(F)c(-c4cncc5cccc(Cl)c45)ncc23)C[C@@H]1CC#N` [Example 88] had a negative logarithm of the IC50 (pIC50) of 7.11. Compared with the last molecule, the pIC50 is 0.43 log units lower.

`C=C(F)C(=O)N1CCN(c2nc(OCc3ccn[nH]3)nc3c(F)c(-c4cccc5ccc(F)c(Cl)c45)ncc23)C[C@@H]1CC#N` [Example 124] gave a pIC50 of 5.75. On to `C=CC(=O)N1[C@@H](C)CN(c2ncnc3c(F)c(-c4cccc5ccc(F)c(Cl)c45)ncc23)C[C@@H]1C` [Example 146], for which the pIC50 is 5.00.

Molecule `C=C(F)C(=O)N1CCN(c2nc(OC[C@@H]3CC4CCN3C4)nc3c(F)c(-c4cccc5ccc(F)c(Cl)c45)ncc23)C[C@@H]1CC#N` (some centres unmarked) [Example 244] gave a pIC50 of 7.06. The molecule `C#Cc1cccc2cc(O)cc(-c3ncc4c(N5C[C@@H]6[C@H]5CCN6C(=O)C=C)nc(OC[C@@H]5CCCN5C)nc4c3F)c12` [Example 292, 1-((1R,5R)-6-(7-(8-ethynyl-3-hydroxynaphthalen-1-yl)-8-fluoro-2-(((S)-1-methylpyrrolidin-2-yl)methoxy)pyrido[4,3-d]pyrimidin-4-yl)-2,6-diazabicyclo[3.2.0]heptan-2-yl)prop-2-en-1-one] had a pIC50 of 7.70. Against the preceding molecule, the pIC50 is 0.64 log units higher. As for `C=C(F)C(=O)N1CCN(c2nc(OCCc3cccc(N)c3)nc3c(F)c(-c4cccc5cccc(Cl)c45)ncc23)C[C@@H]1CC#N` [Example 82], the negative logarithm of the IC50 (pIC50) is 6.21.

Molecule `C=CC(=O)N1CCN(c2ncnc3c(F)c(-c4ccccc4C(C)C)ncc23)CC1` [Example 222] gave a negative-log IC50 (pIC50) of 5.00. In the case of `C=C(F)C(=O)N1CCN(c2nc(OCC3CCN3C)nc3c(F)c(-c4cccc5cccc(Cl)c45)ncc23)C[C@@H]1CC#N` (some centres unmarked) [Example 71] it was 7.89. The result for `C=C(F)C(=O)N1CCN(c2nc(OC[C@@H]3CCCN3C(C)C)nc3c(F)c(-c4cccc5cccc(Cl)c45)ncc23)C[C@@H]1CC#N` [Example 125] reads 7.38; that for `C=C(F)C(=O)N1CCN(c2nc(OCC3(C)COC3)nc3c(F)c(-c4cccc5ccc(F)c(Cl)c45)ncc23)C[C@@H]1CC#N` [Example 154], 6.66; that for `C=C(F)C(=O)N1CCN(c2nc(OC[C@@H]3CCCN3C)nc3c(Cl)c(-c4cccc5cccc(C)c45)ncc23)C[C@@H]1CC#N` [Example 32, 2-[(2S)-4-[8-chloro-7-(8-methyl-1-naphthyl)-2-[[(2S)-1-methylpyrrolidin-2-yl]methoxy]pyrido[4,3-d]pyrimidin-4-yl]-1-(2-fluoroprop-2-enoyl)piperazin-2-yl]acetonitrile], 6.86.

For the molecule `C=CS(=O)(=O)N1CCN(c2ncnc3c(F)c(-c4cccc5ccc(F)c(Cl)c45)ncc23)CC1` [Example 205], the pIC50 was 5.00. Turning to `C=CC(=O)N1CCN(c2nc(OC[C@@H]3CCCN3C)nc3c(F)c(-c4ccccc4F)ncc23)C[C@@H]1CC#N` [Example 60, 2-[(2S)-4-[8-fluoro-7-(2-fluorophenyl)-2-[[(2S)-1-methylpyrrolidin-2-yl]methoxy]pyrido[4,3-d]pyrimidin-4-yl]-1-prop-2-enoyl-piperazin-2-yl]acetonitrile], the pIC50 was 6.90.

`C=CC(=O)N1CC[C@@H]2[C@H]1CN2c1nc(OC2COC2)nc2c(F)c(-c3cccc4ccc(F)c(Cl)c34)ncc12` [Example 265] gave a pIC50 of 5.83. As for `C=CC(=O)N1CC[C@@H]2[C@H]1CN2c1nc(N)nc2c(F)c(-c3cccc4ccc(F)c(Cl)c34)ncc12` [Example 282], the pIC50 is 6.54.

Regarding `C=C(F)C(=O)N1CCN(c2nc(OCC3(C)CCN3C)nc3c(F)c(-c4cccc5ccc(F)c(Cl)c45)ncc23)C[C@@H]1CC#N` (some centres unmarked) [Example 161], the pIC50 is 7.96. `C=C(F)C(=O)N1CCN(c2nc(OC[C@@H]3CCCN3C)nc3c(OCC(F)(F)F)c(-c4cccc5cccc(C)c45)ncc23)C[C@@H]1CC#N` [Example 63, 2-((S)-1-(2-fluoroacryloyl)-4-(7-(8-methylnaphthalen-1-yl)-2-(((S)-1-methylpyrrolidin-2-yl)methoxy)-8-(2,2,2-trifluoroethoxy)pyrido[4,3-d]pyrimidin-4-yl)piperazin-2-yl)acetonitrile] showed a pIC50 of 5.55. Regarding `C#Cc1cccc2cccc(-c3ncc4c(N5CCN(C(=O)C=C)CC5)nc(OC[C@@H]5CCCN5C)nc4c3F)c12` [Example 213, (S)-1-(4-(7-(8-ethynylnaphthalen-1-yl)-8-fluoro-2-((1-methylpyrrolidin-2-yl)methoxy)pyrido[4,3-d]pyrimidin-4-yl)piperazin-1-yl)prop-2-en-1-one], the negative-log IC50 (pIC50) is 7.21. Compared with the last molecule, the pIC50 is 1.66 log units higher.

`C=C(F)C(=O)N1CCN(c2nc(OC[C@H]3CCCN3C)nc3c(F)c(-c4cccc5cccc(Cl)c45)ncc23)C[C@@H]1CC#N` [Example 35, 2-[(2S)-4-[7-(8-chloro-1-naphthyl)-8-fluoro-2-[[(2R)-1-methylpyrrolidin-2-yl]methoxy]pyrido[4,3-d]pyrimidin-4-yl]-1-(2-fluoroprop-2-enoyl)piperazin-2-yl]acetonitrile] gave a pIC50 of 7.57. This pIC50 is 0.36 log units higher than that of the molecule before. `C/C=C/C(=O)N1CC[C@@H]2[C@H]1CN2c1ncnc2c(F)c(-c3cccc4ccc(F)c(Cl)c34)ncc12` [Example 260] showed a pIC50 of 5.00.

Take `C=CC(=O)N1CCN(c2ncnc3c(F)c(-c4cccc5ccc(F)c(Cl)c45)ncc23)CC1` [Example 134]: the negative-log IC50 (pIC50) is 5.00. In the case of `C=C(F)C(=O)N1CCN(c2nc(OC[C@@H]3CCCN3CC)nc3c(F)c(-c4cccc5ccc(F)c(Cl)c45)ncc23)C[C@@H]1CC#N` [Example 128], the pIC50 was 7.82. With `C=C(F)C(=O)N1CCN(c2nc(OC[C@@H]3CCCN3C)nc3c(F)c(-c4nc(N)cc5ccccc45)ncc23)C[C@@H]1CC#N` [Example 107], the pIC50 was 6.81. Molecule `O=C(/C=C/C(F)(F)F)N1CC[C@@H]2[C@H]1CN2c1ncnc2c(F)c(-c3cccc4ccc(F)c(Cl)c34)ncc12` [Example 263] had a pIC50 of 5.94. This pIC50 is 0.87 log units lower than that of the molecule before.
